Results taken from patent US10138207B2, “Benzomorphan analogs and the use thereof” (priority 2012, dated 2018).
Read-outs that look alike come from different tables or passages of the source.

What was measured:
[1] = biological target: T1, μ-opioid receptor (Homo sapiens, UniProt P35372); test: μ-opioid receptor [35S]GTPγS functional assay, HEK-293 or CHO cells
[2] = biological target: T1, μ-opioid receptor; test: μ-opioid receptor [35S]GTPγS functional assay, U-2 OS cells; type: biochemical; set-up: expressed in transfected cells; host or cells: U-2 OS; details: for Emax: relative to DAMGO, read-out: GTPγS μ Emax
[3] = biological target: κ opioid receptor (Homo sapiens, UniProt P41145); test: κ-opioid receptor [35S]GTPγS functional assay, U-2 OS cells; type: biochemical; set-up: expressed in transfected cells; host or cells: U-2 OS (in-house membranes); details: for Emax: relative to U69,593, read-out: GTPγS κ Emax
Description: Membranes from recombinant HEK-293 cells, CHO or U-2 OS cells expressing the recombinant human κ opioid receptor (κ) were prepared by lysing cells in ice cold hypotonic buffer (2.5 mM MgCl2, 50 mM HEPES, pH 7.4) (10 mL/10 cm dish) followed by homogenization with a tissue grinder/Teflon pestle. […] Membranes were collected by centrifugation at 30,000×g for 15 min at 4° C. and pellets were resuspended in hypotonic buffer to a final concentration of 1-3 mg/mL. Protein concentrations were determined using the BioRad protein assay reagent with bovine serum albumen as standard. Aliquots of κ receptor membranes were stored at −80° C.
Plates were incubated for 30 min at a temperature of about 25° C. with shaking.

[4] = U-2 OS cells, read-out: GTPγS μ EC50
[5] = U-2 OS cells, read-out: GTPγS κ EC50
[6] = U-2 OS cells, bound in μM, read-out: GTPγS μ EC50
[7] = U-2 OS cells, bound in μM, read-out: GTPγS κ EC50

T1 sequence (P35372 whole entry, species assumed): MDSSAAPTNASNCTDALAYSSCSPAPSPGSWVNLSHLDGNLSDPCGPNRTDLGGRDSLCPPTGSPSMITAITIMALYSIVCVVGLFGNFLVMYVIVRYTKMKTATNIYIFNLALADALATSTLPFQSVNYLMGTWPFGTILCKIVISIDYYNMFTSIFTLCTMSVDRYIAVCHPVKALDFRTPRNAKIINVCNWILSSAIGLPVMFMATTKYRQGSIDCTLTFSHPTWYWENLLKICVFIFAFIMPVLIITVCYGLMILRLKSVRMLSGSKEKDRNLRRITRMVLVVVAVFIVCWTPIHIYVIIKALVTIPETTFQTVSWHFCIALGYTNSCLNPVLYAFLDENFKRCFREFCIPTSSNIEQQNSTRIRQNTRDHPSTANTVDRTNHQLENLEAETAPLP
Sequence of κ opioid receptor (P41145 whole entry): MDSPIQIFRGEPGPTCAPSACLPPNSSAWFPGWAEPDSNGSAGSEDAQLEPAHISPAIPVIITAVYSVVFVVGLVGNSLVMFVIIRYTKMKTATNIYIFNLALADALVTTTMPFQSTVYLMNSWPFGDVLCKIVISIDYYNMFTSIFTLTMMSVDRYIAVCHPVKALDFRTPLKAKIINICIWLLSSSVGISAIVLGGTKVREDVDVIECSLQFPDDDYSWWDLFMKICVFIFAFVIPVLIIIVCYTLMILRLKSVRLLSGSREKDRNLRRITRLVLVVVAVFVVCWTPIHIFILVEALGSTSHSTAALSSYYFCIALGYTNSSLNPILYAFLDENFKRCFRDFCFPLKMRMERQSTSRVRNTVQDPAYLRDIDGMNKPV

Row | SMILES | EC50 [1] | Emax ([1]; read-out: GTPγS μ Emax) | EC50 [2, 4] | Emax ([2]; U-2 OS cells) | EC50 [3, 5] | EC50 [2, 6] | EC50 [3, 7] | Emax ([3]; U-2 OS cells) | EC50 ([2]; GTPγS μ EC50, U-2 OS cells) | EC50 [3]
1 | COc1ccc2c(c1)[C@@]1(C)CCN(C)C(C2)C1N1CCC(N)CC1 (stereo partly drawn) [Compound 70, 1-((6R)-8-methoxy-3,6-dimethyl-1,2,3,4,5,6-hexahydro-2,6-methanobenzo[d]azocin-11-yl)piperidin-4-amine] | 9.38 ± 0.501 µM | 24.7 ± 0.88% |  |  |  |  |  |  |  | 
2 | C[C@]12CCN(CC3CC3)[C@H](Cc3ccc(O)cc31)[C@@H]2NCCc1ccc(S(N)(=O)=O)cc1 [Compound 96, 4-(2-(((2R,6S,11R)-3-(cyclopropylmethyl)-8-hydroxy-6-methyl-1,2,3,4,5,6-hexahydro-2,6-methanobenzo[d]azocin-11-yl)amino)ethyl)benzenesulfonamide] |  |  | 0.00601 ± 0.00051 µM | 32.3 ± 0.88% | 0.00641 ± 0.00167 µM |  |  |  |  | 
3 | C[C@]12CCN(CC3CC3)[C@H](Cc3ccc(O)cc31)[C@H]2NCCc1ccc(S(N)(=O)=O)cc1 [Compound 97, 4-(2-(((2R,6S,11S)-3-(cyclopropylmethyl)-8-hydroxy-6-methyl-1,2,3,4,5,6-hexahydro-2,6-methanobenzo[d]azocin-11-yl)amino)ethyl)benzenesulfonamide] |  |  |  | 2.5% |  | > 20 µM | > 20 µM | 0% |  | 
4 | CN1CC[C@@]2(C)c3cc(O)ccc3C[C@@H]1[C@@H]2NCCc1ccc(Cl)c(Cl)c1 [Compound 98, (2R,6S,11R)-11-((3,4-dichlorophenethyl)amino)-3,6-dimethyl-1,2,3,4,5,6-hexahydro-2,6-methanobenzo[d]azocin-8-ol] |  |  | 0.0003 ± 2.7e-05 µM | 104 ± 3.76% | 0.0286 ± 0.00321 µM |  |  | 95.3 ± 3.84% |  | 
5 | CN1CC[C@@]2(C)c3cc(O)ccc3C[C@@H]1[C@H]2NCCc1ccc(Cl)c(Cl)c1 [Compound 99, (2R,6S,11S)-11-((3,4-dichlorophenethyl)amino)-3,6-dimethyl-1,2,3,4,5,6-hexahydro-2,6-methanobenzo[d]azocin-8-ol] |  |  | 0.00013 ± 1e-05 µM | 71 ± 2% | 0.00144 ± 5.3e-05 µM |  |  | 72.3 ± 4.67% |  | 
6 | COc1ccc(CCN[C@H]2[C@H]3Cc4ccc(O)cc4[C@]2(C)CCN3C)cc1 [Compound 100, (2R,6S,11R)-11-((4-methoxyphenethyl)amino)-3,6-dimethyl-1,2,3,4,5,6-hexahydro-2,6-methanobenzo[d]azocin-8-ol] |  |  | 0.04 ± 0.00325 µM | 102 ± 1.45% | 1.76 ± 0.364 µM |  |  | 45 ± 2.08% |  | 
7 | CN1CC[C@@]2(C)c3cc(O)ccc3C[C@@H]1[C@@H]2NCCc1ccc(F)cc1 [Compound 101, (2R,6S,11R)-11-((4-fluorophenethyl)amino)-3,6-dimethyl-1,2,3,4,5,6-hexahydro-2,6-methanobenzo[d]azocin-8-ol] |  |  |  |  |  |  |  | 66.7 ± 1.2% | 0.00373 ± 0.00021 µM | 1.08 ± 0.113 µM
8 | C[C@]12CCN(CC3CC3)[C@H](Cc3ccc(O)cc31)[C@H]2NCC1CCNCC1 [Compound 102, (2R,6S,11S)-3-(cyclopropylmethyl)-6-methyl-11-((piperidin-4-ylmethyl)amino)-1,2,3,4,5,6-hexahydro-2,6-methanobenzo[d]azocin-8-ol] |  |  |  | 2.5% |  | > 20 µM | > 20 µM | -1% |  | 
9 | CN1CC[C@@]2(C)c3cc(O)ccc3C[C@@H]1[C@H]2NCCc1ccncc1 [Compound 103, (2R,6S,11S)-3,6-dimethyl-11-((2-(pyridin-4-yl)ethyl)amino)-1,2,3,4,5,6-hexahydro-2,6-methanobenzo[d]azocin-8-ol] |  |  | 0.117 ± 0.00282 µM | 77.5 ± 1.26% | 0.287 ± 0.062 µM |  |  | 83 ± 8.02% |  | 
10 | CN1CC[C@@]2(C)c3cc(O)ccc3C[C@@H]1[C@@H]2NCCc1cccs1 [Compound 104, (2R,6S,11R)-3,6-dimethyl-11-((2-(thiophen-2-yl)ethyl)amino)-1,2,3,4,5,6-hexahydro-2,6-methanobenzo[d]azocin-8-ol] |  |  | 0.0513 ± 0.00526 µM | 105.3 ± 0.88% | 1.26 ± 0.229 µM |  |  | 79.7 ± 5.9% |  | 
11 | CN1CC[C@@]2(C)c3cc(O)ccc3C[C@@H]1[C@H]2NCCc1ccc(C(C)(C)C)cc1 [Compound 105, (2R,6S,11S)-11-((4-(tert-butyl)phenethyl)amino)-3,6-dimethyl-1,2,3,4,5,6-hexahydro-2,6-methanobenzo[d]azocin-8-ol] |  |  | 0.00022 ± 5.2e-05 µM | 32.7 ± 1.76% |  |  | > 20 µM | 1% |  | 
